Assays:
Assay type in all cases: in vivo
[1] = tested on: powdery mildew (Erysiphe necator); assay: Powdery mildew on leaf and fruit under the microscope, 2021 field trial (Example 3); conditions: cabernet sauvignon; approx. 5 mM MDJ at 50 gal/acre, four applications
Experimental: MDJ was applied to fields of grape to investigate the efficacy of MDJ in preventing bunch rot on (Botrytis cinerea) and powdery mildew (Erysiphe necator) on grapes. […] (1 liter) per 50 gallons of water (approximately a 5 mM solution of MDJ). The composition was then applied (at a rate of 50 gallons per acre) to three acres (1245 vines/acre) of a cabernet sauvignon variety grown in Napa Valley, CA. There was a total of four applications between June and September using a ground spray rig. Several leaf and fruit samples were collected to access the presence of powdery mildew under the microscope and compared to leaf and fruit of plants treated with the grower standard.

Botrytis cinerea = assay: Laccase analysis for prevalence of Botrytis, 2021 field trial (Example 3); conditions: cabernet sauvignon; approx. 5 mM MDJ at 50 gal/acre, four applications
Experimental: MDJ was applied to fields of grape to investigate the efficacy of MDJ in preventing bunch rot on (Botrytis cinerea) and powdery mildew (Erysiphe necator) on grapes. […] (1 liter) per 50 gallons of water (approximately a 5 mM solution of MDJ). The composition was then applied (at a rate of 50 gallons per acre) to three acres (1245 vines/acre) of a cabernet sauvignon variety grown in Napa Valley, CA. There was a total of four applications between June and September using a ground spray rig. To investigate the prevalence of Botrytis, the enzyme laccase was analyzed. Laccase can negatively impact wine by causing premature browning of bottled white wine and color degradation in red wine. The MDJ treated group had 2 units/ml, whereas the control (grower standard) had 5 units/ml. This level in the control group means that Botrytis problems can be expected during the wine making process, whereas in the MDJ treated group, the value of 2 units/ml means there will be no issues with Botrytis during the wine making process.

Aspergillus carbonarius [2] = assay: Sour rot incidence and severity on black seedless grapes, 2022 field trial (Example 5); conditions: for Sour rot clusters of High severity (PESSEV) / Sour rot clusters of Low severity (PESSEV) / Sour rot clusters of Medium severity (PESSEV): ABCDE; for Sour rot clusters of High severity (PESSEV): Aug. 10, 2022, high = >51%; for Sour rot clusters of Low severity (PESSEV): Aug. 10, 2022, low = <40% of cluster area; for Sour rot clusters of Medium severity (PESSEV): Aug. 10, 2022, medium = 41%-50%; for Sour rot infected clusters (PESINC): applications ABCDE, rated Aug. 10, 2022
Experimental: (§1) Field trials were conducted in California 2022 (a dry year) to investigate the efficacy of MDJ in preventing Sour Rot caused by Aspergillus carbonarius (also known as summer bunch rot, abbreviated ASPECA in Table 7). Black seedless grapes (Vitis labrusca) were used in this trial. Four vines were used per plot. The plots were arranged in a randomized complete block design with six replicates (plots) per treatment. The plots were sprayed five times (ABCDE) at a rate of 500 gal/AC.
Treatments consisted of MDJ at 32 oz and 48 oz/A. A treatment of Regalia® at 1.5 qt/100 gal and Stargus® at 2 qt/100 gal was included for comparative purposes. Application D occurred at 5-10% veraison. Application E occurred at 40% veraison.
(§2) Botrytis and powdery mildew were absent for the trial. An evaluation of sour rot was completed before the harvest. The area of an infected cluster was estimated into a percentage and categorized into three levels of severity: low (<40%), medium (41%-50%), and high (>51%). The majority of individual infected clusters had low severity.

Aspergillus carbonarius [3] = assay: Sour rot incidence and severity on Kyoho grapes, 2022 field trial (Example 6); conditions: for sour rot Incidence per plot (PESINC, clusters) / sour rot severity High (PESSEV, clusters) / sour rot severity Low (PESSEV, clusters) / sour rot severity Medium (PESSEV, clusters): applications ABCD; for sour rot severity High (PESSEV, clusters): high (>51%); for sour rot severity Low (PESSEV, clusters): low (<40% of cluster area infected); for sour rot severity Medium (PESSEV, clusters): medium (41%-50%)
Experimental: as §1, with “10). Kyoho” for “7). Black seedless”, “(Vitis vinifera×Vitis” for “(Vitis”, “Three” for “Four”, “treatment (24 plots total).” for “treatment.”, “four” for “five”, “(ABCD)” for “(ABCDE)”
Treatments consisted of MDJ at 32 oz and 48 oz/A. A treatment of Regalia® at 1.5 qt/100 gal and Stargus® at 2 qt/100 gal was included for comparative purposes.
as §2

## CCCCCC1C(=O)CCC1CC(=O)OC (centres unmarked) [MDJ, methyl dihydrojasmonate]
[1]
  Control of powdery mildew vs grower standard: the same, or better, control of powdery mildew as the grower standard
Botrytis cinerea
  Laccase: 2 units/ml
Aspergillus carbonarius [2]; 32 oz/a
  Sour rot clusters of High severity (PESSEV): 1.3— NUMBER
  Sour rot clusters of Low severity (PESSEV): 7.2— NUMBER
  Sour rot clusters of Medium severity (PESSEV): 5.3— NUMBER
  Sour rot infected clusters (PESINC): 13.8— NUMBER
Aspergillus carbonarius [2]; 48 oz/a
  Sour rot clusters of High severity (PESSEV): 0.8— NUMBER
  Sour rot clusters of Low severity (PESSEV): 6.2— NUMBER
  Sour rot clusters of Medium severity (PESSEV): 5.3— NUMBER
  Sour rot infected clusters (PESINC): 12.3— NUMBER
Aspergillus carbonarius [2]; higher rate of MDJ Elicitor (48 oz/A)
  Control of sour rot compared to the rest of the treatments: most effective at controlling sour rot
Aspergillus carbonarius [3]; Aug. 17, 2022, 32 oz/a
  sour rot Incidence per plot (PESINC, clusters): 0.8— number
  sour rot severity High (PESSEV, clusters): 0.0— number
  sour rot severity Low (PESSEV, clusters): 0.8— number
  sour rot severity Medium (PESSEV, clusters): 0.0— number
Aspergillus carbonarius [3]; Aug. 17, 2022, 48 oz/a
  sour rot Incidence per plot (PESINC, clusters): 1.2— number
  sour rot severity High (PESSEV, clusters): 0.0— number
  sour rot severity Low (PESSEV, clusters): 0.8— number
  sour rot severity Medium (PESSEV, clusters): 0.3— number
Aspergillus carbonarius [3]; lower rate of MDJ Elicitor (32 oz/A)
  Control of sour rot compared to the rest of the treatments: highest efficacy in controlling sour rot
